# Reference: patent US20230027864A1, “COMPOSITIONS AND METHODS FOR DELIVERY OF AGENTS TO IMMUNE CELLS” (ModernaTX, Inc., priority 2018, published 2023)
# Legend:
# monocytes = assay: LNP association and GFP mRNA expression in monocytes of human PBMCs; format: cell-based; settings: for immune cell delivery potentiating ability in monocytes, helper lipid panel: phospholipid component, FIG. 39; for immune cell delivery potentiating ability in monocytes, amino lipid panel: ionizable lipid component, FIG. 37; for immune cell delivery potentiating ability in monocytes, sterol panel: structural lipid component, FIG. 38
# Description: (§1) In this Example, LNPs were made with various lipid components and at different ratios and were tested for their ability to transfect monocytes in vitro. For these experiments, the association of the LNP with cells and the expression of mRNA-encoding protein within the transfected cells was assessed at the cell-by-cell level. Peripheral blood mononuclear cells (PBMCs) from human donors were used. PBMCs were predominately T cells (40-60%) B cells (3-15%), and monocytes (15-35%), but also contained small numbers of other cell types. LNPs were incubated with serum or PBS for 30 minutes and then added to the PBMCs. The LNP concentration was 0.050 mg/ml, the LNP volume was 0.1 ml.
# (§2) LNPs contained 0.1% Rhodamine-DOPE in addition to the other LNP components to facilitate detection. Thus, the ratios set forth in the tables below include 0.1 for the rhodamine label. For example, 50:10:10:27.9:2:0.1 AL:DSPC:chol:sterol:Cmp 428 indicates 50% amino lipid as the ionizable lipid, 10% DSPC as the phospholipid, 10% cholesterol, 27.9% phytosterol, 2% Compound 428 as the PEG lipid and 0.1% for the rhodamine-DOPE label. To prepare a non-labeled LNP, the same ratios are used except that the 0.1% rhodamine label is omitted and an additional 0.1% of structural lipid (cholesterol or cholesterol/phytosterol blend) is used (e.g., 27.9% becomes 28%).
# (§3) Cells were sorted by flow cytometry into subsets based on expression of certain markers: CD3 (T cells), CD20 (B cells), and CD3-, CD20-, CD14+(Monocytes).
# (§4) mRNA encoding GFP was used as a model agent to effect expression of an intracellular protein.
# (§5) When conducting flow cytometry, the Y-axis was signal from the rhodamine tag on the LNP and the X-axis was the GFP signal showing expression of the protein.
# (§6) The “associated” population is any rhodamine+ and/or GFP+ cell and the percent of these cells was calculated by dividing by the total number of cells. The “expression” population is any GFP+ cell and the percent of these cells was calculated by dividing by the total number of cells. The percent of associated cells expressing was obtained by dividing the % expressing cells by the % associated cells.
# T cells [1] = assay: LNP association and GFP mRNA expression in T cells of human PBMCs; format: cell-based; settings: for immune cell delivery potentiating ability in T cells, amino lipid panel: ionizable lipid component of the LNP, FIG. 30; for immune cell delivery potentiating ability in T cells, sterol panel: structural lipid component of the LNP, FIG. 31; for delivery and uptake by T cells, only cholesterol as structural lipid: Experiment 2, mean % cells expressing the mRNA relative to positive control (Compound X, β-sitosterol); for immune cell delivery potentiating ability in T cells, helper lipid panel: phospholipid component of the LNP, FIG. 32
# Description: as §1, with “a second series of experiments, additional compounds,” for “this Example, LNPs were made with various lipid components and at different ratios and”, “tested in the LNPs” for “tested”, “enhance delivery to T cells.” for “transfect monocytes in vitro.”, “(40-60%),” for “(40-60%)”
# as §2, §3, §4, §5, §6
# T cells [2] = assay: Additional LNPs: T cell transfection in vitro, mOX40L mRNA, labeled LNPs; format: cell-based, human; settings: for immune cell delivery potentiating ability in T cells, amino lipid panel: ionizable lipid component, FIG. 43
# Description: In this Example, additional LNPs comprising various lipid components and at different ratios were made and tested for their ability to transfect T cells in vitro. Transfection was performed as in Example 5 using LNPs encapsulating an mRNA encoding mouse OX40L. LNPs were labeled and the results were determined for the mean % cells with LNPs associated, the mean % cells expressing mOX40L and the % of LNP-associated cells expressing mOX40L, as described hereinbefore.
# splenic CD3+ T cells = assay: Transfection of splenic T cells in vivo in mice; settings: for capability to transfect splenic CD3+ T cells in vivo: as ionizable lipid, 0.5 mg/kg i.v., 24 hours, FIG. 36; for transfection of CD3+ T cells in vivo, only cholesterol as structural lipid: FIG. 36 lanes 6 and 8, relative to positive control LNP (Compound X, β-sitosterol)
# Description: In this Example, LNPs were made with various lipid components identified in the in vitro screens described in Example 17 and mice were administered the LNPs encapsulating a murine OX40L-encoding mRNA. The compositions shown below in Table 26 were tested in which the ratios of the components in each composition was 50% ionizable lipid, 10% phospholipid, 38.5% structural lipid and 1.5% PEG lipid.
# Mice were treated intravenously with a single injection at a dose concentration of 0.1 mg/ml and at a dose level of 0.5 mg/kg. PBS was used as a negative control.
compound,measurement,setting,value
"CCCCCCCC/C=C\CCCCCCCC(=O)OC[C@H](COP(=O)([O-])OCC[N+](C)(C)C)OC(=O)CCCCCCC/C=C\CCCCCCCC [DOPC, 1,2-dioleoyl-sn-glycero-3-phosphocholine, reference compound]","immune cell delivery potentiating ability in monocytes, helper lipid panel",monocytes,exhibited immune cell delivery potentiating ability in monocytes
"CCCCCCCCCOC(=O)CCCCCCCN(CCCCCCCC(=O)OC(CCCCCCCC)CCCCCCCC)CCCNc1c(NC)c(=O)c1=O [Compound I-182, Heptadecan-9-yl 8-((3-((2-(methylamino)-3,4-dioxocyclobut-1-en-1-yl)amino)propyl)(8-(nonyloxy)-8-oxooctyl)amino)octanoate]","immune cell delivery potentiating ability in T cells, amino lipid panel",T cells [1],exhibited immune cell delivery potentiating ability in T cells
same,"immune cell delivery potentiating ability in monocytes, amino lipid panel",monocytes,exhibited immune cell delivery potentiating ability in monocytes
same,"immune cell delivery potentiating ability in T cells, amino lipid panel",T cells [2],exhibited immune cell delivery potentiating ability in T cells
"CC[C@H](CC[C@@H](C)[C@H]1CC[C@H]2[C@@H]3CC=C4C[C@@H](O)CC[C@]4(C)[C@H]3CC[C@]12C)C(C)C [β-sitosterol, beta-sitosterol, reference compound]","immune cell delivery potentiating ability in T cells, sterol panel",T cells [1],exhibited immune cell delivery potentiating ability in T cells
same,"immune cell delivery potentiating ability in monocytes, sterol panel",monocytes,exhibited immune cell delivery potentiating ability in monocytes
"CCCCCCCCC(CC)OC(=O)CCCCCCCN(CCCCCCCC(=O)OC(CCCCCCCC)CCCCCCCC)CCCNc1c(NC)c(=O)c1=O (stereo not drawn) [Compound I-301, Heptadecan-9-yl 8-((3-((2-(methylamino)-3,4-dioxocyclobut-1-en-1-yl)amino)propyl)(8-oxo-8-(undecan-3-yloxy)octyl)amino)octanoate]","immune cell delivery potentiating ability in T cells, amino lipid panel",T cells [1],exhibited immune cell delivery potentiating ability in T cells
same,capability to transfect splenic CD3+ T cells in vivo,splenic CD3+ T cells,even higher capability to transfect splenic CD3+ T cells in vivo than the positive control LNP containing Compound X
same,"immune cell delivery potentiating ability in T cells, amino lipid panel",T cells [2],exhibited immune cell delivery potentiating ability in T cells
CCCCCCCCC(CCCCCCCC)OC(=O)CCCCCCCN(CCCCCCCC(=O)OCC(C)CCCCCCC)CCCNc1c(NC)c(=O)c1=O (stereo not drawn) [Compound I-321],"delivery and uptake by T cells, only cholesterol as structural lipid",T cells [1],effective at potentiating delivery and uptake by T cells
same,"immune cell delivery potentiating ability in T cells, amino lipid panel",T cells [1],exhibited immune cell delivery potentiating ability in T cells
same,"transfection of CD3+ T cells in vivo, only cholesterol as structural lipid",splenic CD3+ T cells,effective at potentiating transfecting CD3+ T cells in vivo
same,capability to transfect splenic CD3+ T cells in vivo,splenic CD3+ T cells,even higher capability to transfect splenic CD3+ T cells in vivo than the positive control LNP containing Compound X
same,"immune cell delivery potentiating ability in T cells, amino lipid panel",T cells [2],exhibited immune cell delivery potentiating ability in T cells
"CC[C@H](/C=C/[C@@H](C)[C@H]1CC[C@H]2[C@@H]3CC=C4C[C@@H](O)CC[C@]4(C)[C@H]3CC[C@]12C)C(C)C [stigmasterol, reference compound]","immune cell delivery potentiating ability in monocytes, sterol panel",monocytes,exhibited immune cell delivery potentiating ability in monocytes
CCCCCCCCCOC(=O)CCCCCCCN(CCCCCCCOC(=O)C(CCCCCCCC)CCCCCCCC)CCCNc1c(NC)c(=O)c1=O [Compound I-326],"delivery and uptake by T cells, only cholesterol as structural lipid",T cells [1],effective at potentiating delivery and uptake by T cells
same,"immune cell delivery potentiating ability in T cells, amino lipid panel",T cells [1],exhibited immune cell delivery potentiating ability in T cells
same,"transfection of CD3+ T cells in vivo, only cholesterol as structural lipid",splenic CD3+ T cells,effective at potentiating transfecting CD3+ T cells in vivo
same,capability to transfect splenic CD3+ T cells in vivo,splenic CD3+ T cells,even higher capability to transfect splenic CD3+ T cells in vivo than the positive control LNP containing Compound X
same,"immune cell delivery potentiating ability in T cells, amino lipid panel",T cells [2],exhibited immune cell delivery potentiating ability in T cells
CC(C)[C@H](C)CC[C@@H](C)[C@H]1CC[C@H]2[C@@H]3CC=C4C[C@@H](O)CC[C@]4(C)[C@H]3CC[C@]12C [camposterol],"immune cell delivery potentiating ability in T cells, sterol panel",T cells [1],exhibited immune cell delivery potentiating ability in T cells
same,"immune cell delivery potentiating ability in monocytes, sterol panel",monocytes,exhibited immune cell delivery potentiating ability in monocytes
CCCCCCCCCCC(=O)CCCCCCCN(CCCCCCCC(=O)OC(CCCCCCCC)CCCCCCCC)CCCNC(=S)N(C)C [Compound I-111],"immune cell delivery potentiating ability in T cells, amino lipid panel",T cells [1],exhibited immune cell delivery potentiating ability in T cells
same,"immune cell delivery potentiating ability in monocytes, amino lipid panel",monocytes,exhibited immune cell delivery potentiating ability in monocytes
CC[C@H](CC[C@@H](C)[C@H]1CC[C@H]2[C@@H]3CC[C@H]4C[C@@H](O)CC[C@]4(C)[C@H]3CC[C@]12C)C(C)C [β-sitostanol],"immune cell delivery potentiating ability in T cells, sterol panel",T cells [1],exhibited immune cell delivery potentiating ability in T cells
same,"immune cell delivery potentiating ability in monocytes, sterol panel",monocytes,exhibited immune cell delivery potentiating ability in monocytes
CCCCCCCCCOC(=O)CCCCCCCN(CCCCCCCC(=O)OC(CCCCCCCC)CCCCCCCC)CCCNS(C)(=O)=O [Compound I-109],"immune cell delivery potentiating ability in T cells, amino lipid panel",T cells [1],exhibited immune cell delivery potentiating ability in T cells
same,"immune cell delivery potentiating ability in monocytes, amino lipid panel",monocytes,exhibited immune cell delivery potentiating ability in monocytes
CCCCCCCCCCCCCC(=O)OCC(COP(=O)(O)OCCN)OC(=O)CCCCCCCCCCCCC (stereo not drawn) [DMPE],"immune cell delivery potentiating ability in T cells, helper lipid panel",T cells [1],exhibited immune cell delivery potentiating ability in T cells
same,"immune cell delivery potentiating ability in monocytes, helper lipid panel",monocytes,exhibited immune cell delivery potentiating ability in monocytes
CCCCCCCCCCCCCCCCCC(=O)OCC(COP(=O)([O-])OCC[N+]1(C)CCOCC1)OC(=O)CCCCCCCCCCCCCCCCC (stereo not drawn) [Compound H-409],"immune cell delivery potentiating ability in T cells, helper lipid panel",T cells [1],exhibited immune cell delivery potentiating ability in T cells
same,"immune cell delivery potentiating ability in monocytes, helper lipid panel",monocytes,exhibited immune cell delivery potentiating ability in monocytes
same,"immune cell delivery potentiating ability in T cells, helper lipid panel","T cells [2]; phospholipid component, FIG. 45",exhibited immune cell delivery potentiating ability in T cells
CCCCCCCCCOC(=O)CCCCCCCN(CCCCCCCC(=O)OC(CCCCCCCC)CCCCCCCC)CCCNC(=O)OC [Compound I-181],"immune cell delivery potentiating ability in T cells, amino lipid panel",T cells [1],exhibited immune cell delivery potentiating ability in T cells
same,"immune cell delivery potentiating ability in monocytes, amino lipid panel",monocytes,exhibited immune cell delivery potentiating ability in monocytes
same,"immune cell delivery potentiating ability in T cells, amino lipid panel",T cells [2],exhibited immune cell delivery potentiating ability in T cells
